The assay has as its system lymphocytic leukemia P388. The assay can be described thus: Lymphocytic leukemia P388 test (intraperitoneal administration). The assay is classed as in vivo, DBA/2 mice. As to the method:
The animals used are DBA/2 mice all of one sex, weighing a minimum of 17 g. and all within a 3 gram weight range. There are 5 or 6 animals per test group. The tumor transplant is by intraperitoneal injection of 0.1 ml. of dilute ascitic fluid containing 10^6 cells of lymphocytic leukemia P388. The test compounds are administered intraperitoneally on days one, 5 and 9 (relative to tumor inoculation) at various doses. The animals are weighed and survivors are recorded on a regular basis for 30 days. The median survival time and the ratio of survival time for treated (T)/control (C) animals are calculated.

The mark [1] stands for this setting: 0.39 mg./kg. i.p., days 1, 5 and 9.
[2] abbreviates: 0.78 mg./kg. i.p., days 1, 5 and 9.
Where [3] appears, read: 1.56 mg./kg. i.p., days 1, 5 and 9.
Setting [4] is: 3.1 mg./kg. i.p., days 1, 5 and 9.
Where [5] appears, read: 6.2 mg./kg. i.p., days 1, 5 and 9.
Setting [6] is: 12.5 mg./kg. i.p., days 1, 5 and 9.
[7] abbreviates: Mus musculus, P388, ip, 0.39 mg./kg. i.p., days 1, 5 and 9, efficacy ≥125%, read-out: T/C × 100.
Setting [8] is: Mus musculus, P388, ip, 0.78 mg./kg. i.p., days 1, 5 and 9, efficacy ≥125%, read-out: T/C × 100.
Setting [9] is: Mus musculus, P388, ip, 1.56 mg./kg. i.p., days 1, 5 and 9, efficacy ≥125%, read-out: T/C × 100.
Where [10] appears, read: Mus musculus, P388, ip, 3.1 mg./kg. i.p., days 1, 5 and 9, efficacy ≥125%, read-out: T/C × 100.
The mark [11] stands for this setting: Mus musculus, P388, ip, 6.2 mg./kg. i.p., days 1, 5 and 9, efficacy ≥125%, read-out: T/C × 100.
Setting [12] is: Mus musculus, P388, ip, 12.5 mg./kg. i.p., days 1, 5 and 9, efficacy ≥125%, read-out: T/C × 100.
Setting [13] is: 100 mg./kg. i.p., days 1, 5 and 9.
Setting [14] is: 200 mg./kg. i.p., days 1, 5 and 9.
Setting [15] is: Mus musculus, P388, ip, 100 mg./kg. i.p., days 1, 5 and 9, efficacy ≥125%, read-out: T/C × 100.
The mark [16] stands for this setting: Mus musculus, P388, ip, 200 mg./kg. i.p., days 1, 5 and 9, efficacy ≥125%, read-out: T/C × 100.
Where [17] appears, read: 6.25 mg./kg. i.p., days 1, 5 and 9.
Where [18] appears, read: 25 mg./kg. i.p., days 1, 5 and 9.
[19] abbreviates: 50 mg./kg. i.p., days 1, 5 and 9.
The mark [20] stands for this setting: Mus musculus, P388, ip, 6.25 mg./kg. i.p., days 1, 5 and 9, efficacy ≥125%, read-out: T/C × 100.
Where [21] appears, read: Mus musculus, P388, ip, 50 mg./kg. i.p., days 1, 5 and 9, efficacy ≥125%, read-out: T/C × 100.
[22] abbreviates: Mus musculus, P388, ip, read-out: T/C × 100.
Where [23] appears, read: Mus musculus, P388, ip, 25 mg./kg. i.p., days 1, 5 and 9, efficacy ≥125%, read-out: T/C × 100.

Structures can show the parent of a compound that is named as a salt. Where two headings read alike, the source gives them in different places.

With `Cl.Cl.NCCNc1ccc(NCCN)c2c1C(=O)c1c(O)ccc(O)c1C2=O` [1,4-Bis(2-aminoethylamino)-5,8-dihydroxyanthraquinone dihydrochloride], the “Median Survival Time” value is, setting by setting: (0.19 mg./kg. i.p., days 1, 5 and 9) 23.0 days; under setting [1], 25.5 days; under setting [2], 24.5 days; under setting [3], 20.0 days; under setting [4], 30.0 days; under setting [5], 15.5 days. Also, the “Median Survival Time” value under setting [6] was found to be 8.0 days. Moreover, the response vs control in vivo at 0.19 mg/kg (Mus musculus, P388, ip, 0.19 mg./kg. i.p., days 1, 5 and 9, efficacy ≥125%, read-out: T/C × 100) was determined as 209%. In addition, the response vs control in vivo at 0.39 mg/kg under setting [7] was 232%. Under setting [8], the response vs control in vivo at 0.78 mg/kg was 223%. Further, the response vs control in vivo at 1.56 mg/kg under setting [9] is 182%. For the same compound, the response vs control in vivo at 3.1 mg/kg under setting [10] was 273%. Also, the response vs control in vivo at 6.2 mg/kg under setting [11] is 141%. Further, the response vs control in vivo at 12.5 mg/kg under setting [12] amounted to 73%.
In the case of `O=C1c2c(O)ccc(O)c2C(=O)c2c(NCCN3CCOCC3)ccc(NCCN3CCOCC3)c21` [1,4-Bis(2-morpholinoethylamino)-5,8-dihydroxyanthraquinone], the “Median Survival Time” value was determined as 12.0 days under setting [13] and 14.0 days under setting [14]. Besides, the response vs control in vivo at 100 mg/kg under setting [15] was found to be 126%. In addition, the response vs control in vivo at 200 mg/kg under setting [16] worked out at 147%.
Take `O=C1c2c(O)ccc(O)c2C(=O)c2c(NCCN3CC3)ccc(NCCN3CC3)c21` [1,4-Bis[2-(1-aziridino)ethylamino]-5,8-dihydroxyanthraquinone]: the “Median Survival Time” value was determined as 14.0 days under setting [2]; 17.0 days under setting [3]; 19.5 days (3.12 mg./kg. i.p., days 1, 5 and 9); 18.5 days under setting [17]; 20.5 days under setting [6]; 20.0 days under setting [18]. Moreover, the “Median Survival Time” value reads like this: under setting [19], 21.5 days; under setting [13], 28.5 days. Also, the response vs control in vivo at 0.78 mg/kg under setting [8] is 140%. Moreover, the response vs control in vivo at 1.56 mg/kg under setting [9] is 170%. Besides, for the setting “Mus musculus, P388, ip, 3.12 mg./kg. i.p., days 1, 5 and 9, efficacy ≥125%, read-out: T/C × 100”, the response vs control in vivo at 3.12 mg/kg was 195%. For the same compound, the response vs control in vivo at 6.25 mg/kg under setting [20] was 185%. Further, under setting [12], the response vs control in vivo at 12.5 mg/kg is 205%. The response vs control in vivo at 50 mg/kg under setting [21] came to 215%. Besides, under setting [15], the response vs control in vivo at 100 mg/kg worked out at 285%. In addition, the response vs control in vivo at 25 mg/kg under setting [22] turned out to be 200%.
Take `CC(O)CNCCNc1ccc(NCCNCC(C)O)c2c1C(=O)c1c(O)ccc(O)c1C2=O.Cl.Cl` (stereo not shown) [1,4-Bis[2-(2-hydroxy-1-propylamino)ethylamino]-5,8-dihydroxyanthraquinone dihydrochloride]: the “Median Survival Time” value by setting is: under setting [1], 17.5 days; under setting [2], 19.0 days; under setting [3], 19.0 days; under setting [4], 22.0 days; under setting [5], 23.0 days; under setting [6], 24.0 days. Further, the “Median Survival Time” value under setting [18] is 12.0 days. Besides, under setting [7], the response vs control in vivo at 0.39 mg/kg came out at 175%. Also, the response vs control in vivo at 0.78 mg/kg under setting [8] amounted to 190%. The response vs control in vivo at 1.56 mg/kg under setting [9] amounted to 190%. Besides, the response vs control in vivo at 3.1 mg/kg under setting [10] was found to be 220%. For the same compound, the response vs control in vivo at 6.2 mg/kg under setting [11] is 230%. Moreover, the response vs control in vivo at 12.5 mg/kg under setting [12] turned out to be 240%. For the same compound, the response vs control in vivo at 25 mg/kg under setting [23] was determined as 120%.
As for `CNCCNCCNc1ccc(NCCNCCNC)c2c1C(=O)c1c(O)ccc(O)c1C2=O.Cl.Cl.Cl.Cl` [1,4-Bis[2-(2-methylaminoethylamino)ethylamino]-5,8-dihydroxyanthraquinone Tetrahydrochloride], the “Median Survival Time” value is 13.5 days (1.12 mg./kg. i.p., days 1, 5 and 9); 13.0 days under setting [3]; 16.0 days under setting [17]; 17.0 days under setting [6]; 19.5 days under setting [18]; 22.0 days under setting [19]. Further, under setting [13], the “Median Survival Time” value turned out to be 22.0 days. Also, for the setting “Mus musculus, P388, ip, 1.12 mg./kg. i.p., days 1, 5 and 9, efficacy ≥125%, read-out: T/C × 100”, the response vs control in vivo at 1.12 mg/kg came to 135%. Besides, the response vs control in vivo at 1.56 mg/kg under setting [9] stood at 130%. The response vs control in vivo at 6.25 mg/kg under setting [20] came out at 160%. Under setting [12], the response vs control in vivo at 12.5 mg/kg is 170%. Moreover, the response vs control in vivo at 25 mg/kg under setting [23] came to 195%. The response vs control in vivo at 50 mg/kg under setting [21] was determined as 220%. Moreover, under setting [15], the response vs control in vivo at 100 mg/kg was 220%.
Turning to `Cl.Cl.O=C1c2c(O)ccc(O)c2C(=O)c2c(NCCNCCCO)ccc(NCCNCCCO)c21` [1,4-Bis[2-(3-hydroxy-1-propylamino)ethylamino]-5,8-dihydroxyanthraquinone dihydrochloride], the “Median Survival Time” value is 21.5 days under setting [2]; 22.0 days under setting [3]; 25.0 days under setting [4]; 26.0 days under setting [17]; more than 30.0 days under setting [6]; 8.5 days under setting [18]. The response vs control in vivo at 1.56 mg/kg under setting [22] was determined as 200%. In addition, the response vs control in vivo at 0.78 mg/kg under setting [8] is 195%. Further, the response vs control in vivo at 3.1 mg/kg under setting [10] came to 227%. Further, under setting [20], the response vs control in vivo at 6.25 mg/kg turned out to be 236%. In addition, under setting [12], the response vs control in vivo at 12.5 mg/kg is more than 273%. Further, the response vs control in vivo at 25 mg/kg under setting [23] worked out at 77%.
Turning to `O=C1c2c(O)ccc(O)c2C(=O)c2c(NCCNCCN3CCOCC3)ccc(NCCNCCN3CCOCC3)c21` [1,4-Bis[2-[2-(1-morpholino)ethylamino]ethylamino]-5,8-dihydroxyanthraquinone tetrahydrochloride], the “Median Survival Time” value amounted to 13.0 days under setting [4]; 14.0 days under setting [5]; 15.0 days under setting [6]; 19.5 days under setting [18]; 18.5 days under setting [19]; 20.0 days under setting [13]. For the same compound, the “Median Survival Time” value under setting [14] is 9.5 days. For the same compound, under setting [22], the response vs control in vivo at 100 mg/kg was 200%. Also, the response vs control in vivo at 3.1 mg/kg under setting [10] came to 130%. The response vs control in vivo at 6.2 mg/kg under setting [11] is 140%. For the same compound, the response vs control in vivo at 12.5 mg/kg under setting [12] turned out to be 150%. Also, the response vs control in vivo at 25 mg/kg under setting [23] is 195%. For the same compound, the response vs control in vivo at 50 mg/kg under setting [21] was determined as 185%. In addition, the response vs control in vivo at 200 mg/kg under setting [16] was found to be 95%.
On to `Cl.Cl.O=C1c2c(O)ccc(O)c2C(=O)c2c(NCCN(CCO)CCO)ccc(NCCN(CCO)CCO)c21` [1,4-Bis[2-[di(β-hydroxyethyl)amino]ethylamino]-5,8-dihydroxyanthraquinone dihydrochloride], for which the “Median Survival Time” value under setting [2] came to 14.5 days; the “Median Survival Time” value under setting [3] is 16.0 days; the “Median Survival Time” value under setting [4] came to 19.0 days; the “Median Survival Time” value under setting [5] came out at 18.5 days; the “Median Survival Time” value under setting [6] is 18.5 days; the “Median Survival Time” value under setting [18] stood at 21.5 days. For the same compound, the “Median Survival Time” value under setting [19] was found to be 20.5 days, the “Median Survival Time” value under setting [13] is 22.0 days and the “Median Survival Time” value under setting [14] is more than 30.0 days. Under setting [8], the response vs control in vivo at 0.78 mg/kg was found to be 161%. In addition, the response vs control in vivo at 1.56 mg/kg under setting [9] was 178%. For the same compound, the response vs control in vivo at 3.1 mg/kg under setting [10] was 211%. Further, the response vs control in vivo at 6.2 mg/kg under setting [11] turned out to be 206%. The response vs control in vivo at 12.5 mg/kg under setting [12] came out at 206%. Besides, the response vs control in vivo at 25 mg/kg under setting [23] was determined as 239%. Moreover, the response vs control in vivo at 50 mg/kg under setting [21] turned out to be 228%. The response vs control in vivo at 100 mg/kg under setting [15] was 244%. Besides, under setting [16], the response vs control in vivo at 200 mg/kg is more than 333%.

The record behind these values is patent US4526989A, “1,4-Bis (substituted-amino)-5,8-dihydroxy-anthraquinones and leuco bases thereof” (priority 1979, dated 1985).
